Laboratory results reported in patent publication US20070276011A1, “Plasminogen Activator Inhibitor-1 Inhibitor” (priority 2003, published 2007).

molecular target: recombinant human PAI-1 (Homo sapiens, UniProt P05121); assay: PAI-1 inhibitory activity, Test Method A (tPA fluorogenic substrate, Tris buffer pH8.0, 37 C); format: biochemical; settings: 25 μM test compound; Test Method A
Protocol: To this solution, 50 μL solution of 400 μM fluogenic substrate for tPA (Pyr-Gly-Arg-MCA, Peptide Institute, Inc.) adjusted with the same buffer was added, and reacted for 30 minutes at 37° C. The reaction was stopped by adding 50 μL of 2% acetic acid. Fluorescence was measured at the excitation wavelength=360 nm, emission wavelength=460 or 465 nm using a microplate reader (SPECTRAFLUOR or GENios) by TECAN. The fluorescence intensities in the presence of the PAI-1 as the control (DMSO) or in the absence of the PAI-1 (tPA alone) were taken as 100% and 0% of PAI-1 activities, respectively, and inhibitory ratios of PAI-1 activities in the presence of the test compound were obtained.
<Composition of the Tris Buffer (pH8.0)>

Sequence of recombinant human PAI-1 (P05121 24-402): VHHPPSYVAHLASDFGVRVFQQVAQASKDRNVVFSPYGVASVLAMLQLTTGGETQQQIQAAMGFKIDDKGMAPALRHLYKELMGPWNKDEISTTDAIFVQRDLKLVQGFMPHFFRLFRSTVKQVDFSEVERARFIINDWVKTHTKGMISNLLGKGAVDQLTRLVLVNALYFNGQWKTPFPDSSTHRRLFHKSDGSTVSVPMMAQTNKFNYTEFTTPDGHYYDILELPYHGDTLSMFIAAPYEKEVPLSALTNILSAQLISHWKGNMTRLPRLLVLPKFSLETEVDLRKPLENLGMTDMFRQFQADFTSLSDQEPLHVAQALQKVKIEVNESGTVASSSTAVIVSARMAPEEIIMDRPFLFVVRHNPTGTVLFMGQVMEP

| SMILES | Inhibitory Ratio at 25 μM (%) |
| --- | --- |
| COC(=O)c1c(O)cc(C=C2SC(=O)N(Cc3ccc(Cl)cc3Cl)C2=O)cc1O [compound 342, 5-[3,5-Dihydroxy-4-(methoxycarbonyl)benzylidene]-3-(2,4-dichlorobenzyl)thiazolidine-2,4-dione] | 37% |
| COc1cc(C=C2C(=O)N(c3ccc(Cl)c(Cl)c3)N=C2C(C)C)cc(C(=O)O)c1O [compound 559] | >99% |
| COc1c(O)cccc1C=C1SC(=O)N(Cc2ccc(Cl)c(Cl)c2)C1=O [compound 329] | 34% |
| COCC1=NN(c2ccc([N+](=O)[O-])cc2)C(=O)C1=Cc1cc(C=Cc2ccccc2)ccc1O [compound 538, 4-(2-Hydroxy-5-styrylbenzylidene)-1-(4-nitrophenyl)-3-methoxymethyl-2-pyrazolin-5-one] | >99% |
| O=C(Nc1cc(O)cc(C(F)(F)F)c1)c1cc(C=C2SC(=O)N(Cc3ccc(Cl)c(Cl)c3)C2=O)ccc1O [compound 459] | >99% |
| COC(=O)c1ccc(NC(=O)c2cc(C=C3SC(=O)N(Cc4ccc(Cl)c(Cl)c4)C3=O)ccc2O)cc1OC [compound 405, 5-{4-hydroxy-3-[3-methoxy-4-(methoxycarbonyl)phenylcarbamoyl]-benzylidene}-3-(3,4-dichlorobenzyl)thiazolidine-2,4-dione] | 55% |
| COC(=O)c1cc(C=C2SC(=O)N(Cc3ccc(Cl)cc3Cl)C2=O)cc(O)c1O [compound 341, 5-[3,4-Dihydroxy-5-(methoxycarbonyl)benzylidene]-3-(2,4-dichlorobenzyl)thiazolidine-2,4-dione] | >99% |
| COc1ccc(C(C)(C)C)cc1NC(=O)c1cc(C=C2SC(=O)N(Cc3ccc(Cl)c(Cl)c3)C2=O)ccc1O [compound 467] | >99% |
| COC(=O)c1cc(C=C2SC(=O)N(Cc3ccc(Cl)cc3Cl)C2=O)cc(OC)c1O [compound 429] | 83% |
| O=C(Nc1ccc(O)cc1)c1cc(C=C2SC(=O)N(Cc3ccc(Cl)c(Cl)c3)C2=O)ccc1O [compound 354] | 72% |
| COc1ccc(C=Cc2ccccc2)cc1C=C1C(=O)N(c2ccc([N+](=O)[O-])cc2)N=C1C(C)C [compound 532, 4-(2-Methoxy-5-styrylbenzylidene)-1-(4-nitrophenyl)-3-isopropyl-2-pyrazolin-5-one] | 78% |
| CCOC1=NN(c2ccc([N+](=O)[O-])cc2)C(=O)C1=Cc1cc(C=Cc2ccc(Oc3ccccc3)cc2)ccc1O [Compound No. 565, 4 [2-Hydroxy-5-(4-phenoxystyryl)benzylidene]-1-(4-nitrophenyl)-3-ethoxy-2-pyrazolin-5-one] | >99% |
| CC(C)C1=NN(c2ccc(C(=O)O)cc2)C(=O)C1=Cc1ccc(C=Cc2ccccc2)cc1 [compound 536] | >99% |
| O=C1SC(=Cc2ccc(O)c(-c3c(O)cccc3O)c2)C(=O)N1Cc1ccc(Cl)c(Cl)c1 [compound 449] | >99% |
| COc1ccc(C(F)(F)F)cc1NC(=O)c1cc(C=C2SC(=O)N(Cc3ccc(Cl)c(Cl)c3)C2=O)ccc1O [compound 468] | >99% |
| CC1=NN(c2cc(Cl)cc(Cl)c2)C(=O)C1=Cc1cc(O)c(O)cc1O [compound 501] | >99% |
| COc1cc(C=C2SC(=O)N(Cc3ccc(Cl)c(Cl)c3)C2=O)cc(OC)c1OC [compound 348] | 44% |
| COc1ccc(NC(=O)c2cc(C=C3SC(=O)N(Cc4cc(C(F)(F)F)cc(C(F)(F)F)c4)C3=O)ccc2O)cc1OC [compound 383, 5-[4-Hydroxy-3-(3,4-dimethoxyphenylcarbamoyl)benzylidene]-3-[3,5-bis(trifluoromethyl)benzyl]thiazolidine-2,4-dione] | 73% |
| O=C1SC(=Cc2ccc(Oc3ccccc3)cc2)C(=O)N1Cc1cc(O)c(O)c(O)c1 [compound 308, 5-(4-Phenoxybenzylidene)-3-(3,4,5-trihydroxybenzyl)thiazolidine-2,4-dione] | 98% |
| COc1ccc(Cl)cc1NC(=O)c1cc(C=C2SC(=O)N(Cc3ccc(Cl)c(Cl)c3)C2=O)ccc1O [compound 454] | >99% |
| COc1ccc(NC(=O)c2cc(C=C3SC(=O)N(Cc4ccc(Cl)c(Cl)c4)C3=O)ccc2O)cc1OC [compound 432, 5-[4-hydroxy-3-(3,4-dimethoxyphenylcarbamoyl)benzylidene]-3-(3,4-dichlorobenzyl)thiazolidine-2,4-dione] | 64% |

same assay, conditions: 50% inhibitory concentration of PAI-1 activity, according to the aforementioned method

| SMILES | IC50 |
| --- | --- |
| CC1=NN(c2cc(Cl)cc(Cl)c2)C(=O)C1=Cc1cc(O)c(O)cc1O [compound 501] | 810 nM |

same assay, conditions: test compound 25 μM; Test Method A

| SMILES | Inhibitory Ratio at 25 μM (%) |
| --- | --- |
| Cc1cccc(N2N=C(C(C)C)C(=Cc3ccc(O)c(O)c3)C2=O)c1 [compound 125, 4-(3,4-Dihydroxybenzylidene)-1-(3-methylphenyl)-3-isopropyl-2-pyrazolin-5-one] | 38% |
| O=C1C(=Cc2ccc(O)c(O)c2)C(c2ccccc2)=NN1c1cc(Cl)cc(Cl)c1 [compound 129, 4-(3,4-Dihydroxybenzylidene)-1-(3,5-dichlorophenyl)-3-phenyl-2-pyrazolin-5-one] | >99% |
| COC(=O)c1cccc(C=C2C(=O)N(c3cc(Cl)cc(Cl)c3)N=C2C(C)C)c1 [compound 204, 4-[3-(methoxycarbonyl)benzylidene]-1-(3,5-dichlorophenyl)-3-isopropyl-2-pyrazolin-5-one] | >99% |
| CC1=NN(c2cc(Cl)cc(Cl)c2)C(=O)C1=Cc1cc(O)c(O)c(O)c1 [compound 143] | >99% |
| O=C(CN1C(=O)SC(=Cc2ccc(O)c(O)c2)C1=O)c1ccc(Cl)cc1Cl [compound 92, 5-(3,4-Dihydroxybenzylidene)-3-[(2,4-dichlorobenzoyl)-methyl]thiazolidine-2,4-dione] | >99% |
| COc1cccc(N2N=C(C(C)C)C(=Cc3ccc(O)c(O)c3)C2=O)c1 [compound 126] | 44% |
| CC(C)C1=NN(c2cc(Cl)cc(Cl)c2)C(=O)C1=Cc1ccc(O)c(O)c1O [compound 142] | >99% |
| CC(C)C1=NN(c2ccc(Cl)nc2)C(=O)C1=Cc1cc(O)c(O)cc1O [compound 222, 4-(2,4,5-Trihydroxybenzylidene)-1-(2-chloropyridin-5-yl)-3-isopropyl-2-pyrazolin-5-one] | 79% |
| CC(C)(C)C1=NN(c2cc(Cl)cc(Cl)c2)C(=O)C1=Cc1cc(O)c(O)c(O)c1 [compound 139] | >99% |
| COC(=O)c1cccc(N2N=C(C(C)C)C(=Cc3ccc4c(c3)OCO4)C2=O)c1 [compound 208] | 47% |
| O=C1SC(=Cc2ccc(O)c(O)c2)C(=O)N1Cc1cc(F)cc(F)c1 [compound 25] | >99% |
| O=C1SC(=Cc2ccc(O)c(O)c2)C(=O)N1Cc1cccc(Br)c1 [compound 35] | >99% |
